Like-named read-outs stand apart in the source and are kept apart here.
Key:
P388/ADR = assay: In vivo activity against drug resistant tumour P388/ADR; parameters: species or system mouse; details: optimum dose 4.5 mg/kg
Description: (§1) CD2-F1 mice, of the same sex, weighing within a 3 gram range surrounding 20 g, are used for this test. Control and test animals are injected intraperitoneally with a suspension of 10^6 viable P388/O tumour cells on day 0. In each test several dose levels which bracket the LD20 for the compound are evaluated; each dose level group contains 6 animals. The test compounds are prepared either in physiologic saline containing 0.05% Tween 80 or distilled water containing 5% dextrose and are administered intraperitoneally on days 1,5 and 9 relative to tumour implant. Doses are on a mg/kg basis according to individual animals' body weights. The day of death for each animal is recorded and the median day of death identified for each group. The difference between the median survival time for treated and control groups is expressed as a percentage increase in life span (% ILS).
(§2) E. Activity Against Drug-Resistant Tumours
Using a similar procedure to the Lymphocytic Leukaemia P388/O test, the compound of Example 1 was evaluated against P388/O tumours which had been made resistant to the following standard, clinically used anti-tumour agents: […]

P388/BCNU = assay: In vivo activity against drug resistant tumour P388/BCNU; parameters: species or system mouse; details: optimum dose 2.0 mg/kg
Description: as §1, §2
Using a similar procedure to the Lymphocytic Leukaemia P388/O test, the compound of Example 1 was evaluated against P388/O tumours which had been made resistant to the following standard, clinically used anti-tumour agents:
bis-chloronitrosourea (BCNU)

P388/Cis--Pt = assay: In vivo activity against drug resistant tumour P388/Cis-Pt; parameters: species or system mouse; details: optimum dose 5.3 mg/kg
tubulin = assay: Turbidimetric assay of tubulin polymerisation; type: biochemical, horse; details: 37° C., increase in A350nm 10 min after lag phase; read-out: Total tubulin polymerisation IC50
Description: A) Tubulin Polymerisation Assay
1. Preparation of tubulin
All manipulations are performed at 4° C. unless otherwise specified. The horse brain is washed in ice-cold BBG buffer and superficial meninges and blood vessels removed. After weighing, cerebral cortices are chopped, homogenised in 75 ml BBG buffer/100 g brain, centrifuged at 6500 g for 15 min and after removal of […], re-centrifuged at 100,000 g for 75 min. The volume of the supernatant (Vml) is measured and V/10 ml 10 mM GTP (Li salt) in H2 O added. The mixture is incubated in sealed centrifuge tubes (30 min, 34° C.) in a shaking water bath to polymerise the tubulin. After polymerisation the tubes are balanced and centrifuged at 100,000 g, (1 h at 27° C.) in a pre-warmed rotor. The high-speed pellet is resuspended in V/4 ml BB buffer and the preparation stirred on ice for 30 min and centrifuged at 100,000 g (1 h at 4° C.) to remove the cold-stable microtubules. An equal volume of BB2G buffer is added to the supernatant which is frozen rapidly in 5 ml samples in plastic weighing dishes floated on a solid CO2 /ethanol slurry, and stored overnight at -80° C. After ca. 18 hours the frozen samples of tubulin are thawed, 10 mM GTP in H2 O added to give a final concentration of 1 mM, and the new volume (Wml), is measured. The polymerisation/depolymerisation cycle is repeated exactly as above but substituting W for V to give twice-cycled tubulin.
2. Turbidimetric Assay of Tubulin Polymerisation
Apparatus: recording spectrophotometer with a 6-position, thermostatted cuvette holder; full scale deflection=0.2 absorbance units.
In a 1 ml spectrophotometer cuvette are mixed 100 μl 10 mM GTP (Li salt) made up in BB buffer, 10 μl H2 O or DMSO-depending on selected drug solvent, BB buffer and tubulin preparation such that the final increase in A350nm is 0.15 units after 16 mins (approx. 100 μl of tubulin prep. or 2.5 mg protein) in a final volume of 1 ml at 37° C. All reagents are stored on ice.
Polymerisation is initiated by raising the temperature to 37° C. and the increase in A350nm of triplicate samples against a reference cuvette is recorded. The reference sample includes a similar incubation mixture either without tubulin or with the addition of 1 mM Ca^2+. The increase over initial A350nm 10 min after the completion of lag phase (control polymerisation is 80% complete within this time) is calculated and expressed as a percentage of the control value, for a range of drug concentrations. The drug concentration required to give a 50% change (IC50) in the control value is determined.

P388 D1 cells = assay: P388 D1 colony-forming assay; type: cell-based; details: Mus musculus
Description: B) P338D1 Colony-forming Assay
In this assay, cells from an in vitro-adapted line of the mouse lymphoid neoplasm, P388 are first exposed to serially diluted concentrations of test compound over a 24 hour period in culture. Thereafter, the ability of such treated cells to form discrete colonies over a 14 day period after resuspension in a semi-solid drug-free medium is determined.
Initially cells in log growth are plated into individual 25 cm^2 tissue culture flasks each containing a final volume of 5 mls of Hepes buffered RPMI 1640 culture medium supplemented with 10 percent foetal calf serum, antibiotics and test compound. All compounds are formulated initially at appropriate concentrations in DMSO, 25 microliters of which is then added to each flask. All compounds are evaluated at concentrations ranging serially in four fold decrements from a top concentration some four fold greater than that already known to inhibit the proliferation of these cells by about 80 to 90 percent in the primary proliferative assay.
After 24 hrs exposure to the test compound the cells are counted and a known number of live cells transferred to a 15 ml centrifuge tube to which 4 mls of a 0.25 percent low temperature gelling agarose solution in complete RPMI tissue culture medium is then added. After 13 days incubation at 37° C., 1 ml of 1% p-Iodonitrotetrazolium violet is added to the top of each tube and allowed to permeate through the agarose for a further 24 to 48 hrs. This dye is metabolised by living cells to produce an insoluble red crystalline product which facilitates counting of the colonies. Samples are taken from each tube and the number of colonies containing a minimum of 50 cells is determined. The concentration of compound necessary to inhibit colony formation by 50 percent relative to that of control cells incubated under identical conditions but in the absence of the test compound is determined.

P388/O tumour = assay: Lymphocytic leukaemia P388/O test; type: in vivo, mouse; details: Mus musculus, P388, ip
Description: C. Lymphocytic Leukemia P388/O Test
as §1

LD20 (Mouse) = type: in vivo; details: i.p. days 1, 5 and 9, CD2-F1 mice, observed up to 14 days
[1] = test system: DLD-1 human colon carcinoma cells; assay: In vitro activity against human tumour cell line DLD-1 (proliferation); type: cell-based; details: DLD-1, 96 h
Description: (§3) Cells from the human tumour cell lines DLD-1, HCT-116, WiDr and A549 are exposed to serially diluted concentrations of test compounds over a 96 hour period in culture. The ability of such cells to proliferate over the test period is determined.
(§4) Cells in log growth are plated into 96 well multiwell tissue culture dishes in 100 μl/well of RPMI 1640 culture medium supplemented with 10% foetal calf serum, antibiotics and test compound. All compounds are formulated initially at appropriate concentrations in DMSO, the final concentrations in this solvent being twenty times that required in the plate. A final 1 in 10 dilution in complete medium is then made before adding 100 μl to each well of the plate. All compounds are evaluated at concentrations ranging serially in four fold decrements from a top concentration some four fold greater than that already known to inhibit the proliferation of cells from the mouse lymphoid neoplasm, P388D1 by about 80 to 90 percent in a primary proliferative assay.
(§5) After 96 hours the proliferation of cells exposed to test compound is compared with control untreated cells by one of two methods:
a) Culture supernatants are aspirated and cells fixed and stained by adding a solution of methylene blue (5 g per liter of 50% ethanol: water, 100 μl/well). After 30 minutes at room temperature unbound stain is washed off by immersing plates in water. Stained cells are solubilised overnight using 1% Sarkosyl (Sigma) in phosphate-buffered saline (100 μl/well). Absorbances are read by an ELISA plate spectrophotometer at a wavelength of 620 nm. The IC50 is defined as that concentration of drug which decreases absorbance to 50% of that in control (drug-free) cultures. This method is used for the DLD-1 cell line.

[2] = test system: WiDr human colon adenocarcinoma cells; assay: In vitro activity against human tumour cell line WiDr (proliferation); type: cell-based; details: 96 h
Description: as §3, §4, §5
(§6) b) 20 μl of MTT (5 mg/ml in PBS) is added to each well. After an incubation period of 4 hours the medium from each well is aspirated and replaced with 200 μl DMSO to dissolve the formazan crystals formed. Absorbances are read by an ELISA plate spectrophotometer at a wavelength of 540 nm. The IC50 is defined as that concentration of drug which decreases absorbance to 50% of that in control (drug-free) cultures. This method is used for the WiDr, HCT-116 and A549 cell lines.

[3] = test system: HCT-116 human colon carcinoma cells; assay: In vitro activity against human tumour cell line HCT-116 (proliferation); type: cell-based; details: HCT-116, 96 h
Description: as §3, §4, §5, §6

[4] = test system: A549 human lung carcinoma cells; assay: In vitro activity against human tumour cell line A549 (proliferation); type: cell-based; details: A549, 96 h
Description: as §3, §4, §5, §6

microtubule function = details: cited from earlier work
[5] = P388D1, 24 h exposure, 14 days colony growth, read-out: IC50 colony formation

COc1cccc2c1C(=O)c1c(O)c3c(c(O)c1C2=O)C[C@@](O)(C(=O)CO)C[C@@H]3O[C@H]1C[C@H](N)[C@H](O)[C@H](C)O1 [ADR, adriamycin, reference compound]
60 Day Survivors (P388/ADR): 0/6 | % ILS (P388/ADR): +27%

O=NN(CCCl)C(=O)NCCCl [BCNU, bis-chloronitrosourea, reference compound]
60 Day Survivors (P388/BCNU): 0/6 | % ILS (P388/BCNU): +36%

N.N.[Cl][Pt][Cl] [Cis--Pt, Cis-platinum, reference compound]
60 Day Survivors (P388/Cis--Pt): 0/6 | % ILS (P388/Cis--Pt): +21%

CCOC(=O)Nc1cn2nc(OCc3cc(OC)ccc3OC)ccc2n1 [Example 2, Ethyl N-[6-(2,5-Dimethoxybenzyloxy)imidazo[1,2-b]pyridazin-2-yl]carbamate]
IC50 (tubulin): 140 nM | IC50 (P388 D1 cells; P388D1, read-out: IC50 colony formation): 0.516 nM | ILS at 7.3 mg/kg (P388/O tumour): 31% | LD50 (LD20 (Mouse)): 5 mg/kg | IC50 [1]: 2.9 nM | IC50 [2]: 4.57 nM | IC50 [3]: 2.8 nM | IC50 [4]: 3.42 nM

COC(=O)Nc1cn2nc(OCc3cc(OC)ccc3OC)ccc2n1 [Example 3, Methyl N-[6-(2,5-Dimethoxybenzyloxy)imidazo[1,2-b]pyridazin-2-yl]carbamate]
IC50 (tubulin): 410 nM | IC50 (P388 D1 cells; [5]): 2.15 nM | ILS at 50 mg/kg (P388/O tumour; 50 mg/kg i.p. days 1, 5 and 9): 136% | LD50 (LD20 (Mouse)): 200 mg/kg | IC50 ([1]; methylene blue, read-out: IC50): 1.35 nM | IC50 ([2]; MTT, read-out: IC50): 0.92 nM | IC50 ([3]; MTT, read-out: IC50): 1.91 nM | IC50 [4]: 1.92 nM

CCCOC(=O)Nc1cn2nc(OCc3cc(OC)c(OC)c(OC)c3)ccc2n1 [Example 4, n-Propyl N-[6-(3,4,5-trimethoxybenzyloxy)imidazo[1,2-b]pyridazin-2-yl]carbamate]
IC50 (tubulin): 370 nM | IC50 (P388 D1 cells; [5]): 5.12 nM | ILS at 20 mg/kg (P388/O tumour; 20 mg/kg i.p. days 1, 5 and 9): 44% | LD50 (LD20 (Mouse)): 20 mg/kg | IC50 ([1]; methylene blue, read-out: IC50): 6.63 nM | IC50 ([2]; MTT, read-out: IC50): 11 nM | IC50 ([3]; MTT, read-out: IC50): 5.45 nM | IC50 ([4]; MTT, read-out: IC50): 20.8 nM

CCCCOC(=O)Nc1cn2nc(OCc3cc(OC)c(OC)c(OC)c3)ccc2n1 [Example 5, n-Butyl N-[6-(3,4,5-trimethoxybenzyloxy)imidazo[1,2-b]pyridazin-2-yl]carbamate]
IC50 (tubulin): 490 nM | IC50 (P388 D1 cells; [5]): 12.6 nM | ILS at 150 mg/kg (P388/O tumour; 150 mg/kg i.p. days 1, 5 and 9): 61% | LD50 (LD20 (Mouse)): 140 mg/kg | IC50 ([1]; methylene blue, read-out: IC50): 7.34 nM | IC50 ([2]; MTT, read-out: IC50): 3.65 nM | IC50 ([3]; MTT, read-out: IC50): 3.3 nM | IC50 ([4]; MTT, read-out: IC50): 4.36 nM

CCOC(=O)Nc1cn2nc(OCc3cc(OC)c(OC)c(OC)c3)ccc2n1 [Example 7, Ethyl N-[6-(3,4,5-trimethoxybenzyloxy)imidazo[1,2-b]pyridazin-2-yl]carbamate]
IC50 (tubulin): 520 nM | IC50 (P388 D1 cells; [5]): 6.34 nM | ILS at 5 mg/kg (P388/O tumour; 5 mg/kg i.p. days 1, 5 and 9): 111% | LD50 (LD20 (Mouse)): 15 mg/kg | IC50 ([1]; methylene blue, read-out: IC50): 5.92 nM | IC50 ([2]; MTT, read-out: IC50): 19.7 nM | IC50 ([3]; MTT, read-out: IC50): 8.25 nM | IC50 ([4]; MTT, read-out: IC50): 22.4 nM

COCCOC(=O)Nc1cn2nc(OCc3cc(OC)c(OC)c(OC)c3)ccc2n1 [Example 8, 2-Methoxyethyl N-[6-(3,4,5-trimethoxybenzyloxy)imidazo[1,2-b]pyridazin-2-yl]carbamate]
IC50 (tubulin): 230 nM | IC50 (P388 D1 cells; [5]): 2.93 nM | ILS at 10 mg/kg (P388/O tumour; 10 mg/kg i.p. days 1, 5 and 9): 44% | LD50 (LD20 (Mouse)): 15 mg/kg | IC50 ([1]; methylene blue, read-out: IC50): 8.82 nM | IC50 ([2]; MTT, read-out: IC50): 41 nM | IC50 ([3]; MTT, read-out: IC50): 20.5 nM | IC50 ([4]; MTT, read-out: IC50): 39 nM

CCOC(=O)Nc1cc2c(c(N)n1)N=C(CN(C)c1ccccc1)CN2 [NSC-181928]
microtubule inhibitory activity (microtubule function): microtubule inhibitory activity

COC(=O)Nc1nc2ccc(C(=O)c3cccs3)cc2[nH]1 [nocodazole]
microtubule inhibitory activity (microtubule function): microtubule inhibitory activity

CCOC(=O)Nc1ccc(SCC2COC(Cn3ccnc3)(c3ccc(Cl)cc3Cl)O2)cc1 (stereo not drawn) [tubulazole]
microtubule inhibitory activity (microtubule function): microtubule inhibitory activity
